Test results published in patent US11701433B2, “Complexes for delivery of antigenic peptides” (The Regents of the University of Michigan, priority 2017, dated 2023).

Key:
[1] = tested on: STING; experiment: Immunoblot of STING protein level in SOX2-expressing cells treated with inhibitors of autophagy; assay type: cell-based; conditions: HEK-293T and UMSCC22b cells
Description: Cell culture: UMSCC22b and UMSCC47 were obtained from the U-M Head and Neck Cancer SPORE. PCI-13 was obtained from the University of Pittsburgh Head and Neck Cancer SPORE. HEK-293T was purchased from ATCC. The human HNSCC cells and HEK293T cells were maintained in complete DMEM medium. The MOC2-E6/E7 cells were obtained from Dr. David Mooney at Harvard University, the parental and derivative cell lines were cultured in 30% F12 nutrient mix (Thermo Fisher Scientific, Waltham, Mass.), 5% FBS, puromycin […], insulin (4 mg/ml), hydrocortisone (200 ug/ml), EGF (100 ug/ml) and penicillin (100 U/ml) and streptomycin […]. THP1-blue ISG cells (Cat. thp-isg, InvivoGen, San Diego, Calif.) were cultured in RPMI media supplemented with 10% FBS, 1% penicillin, streptomycin, Normocin and Zeocin. NK cells, T cells, and tumor-infiltrating lymphocytes were cultured in complete RPMI 1640 medium. Peripheral blood monocytes were separated from healthy volunteers using Ficoll-Paque gradient. Primary human NK and CD8^+ T cells were separated using a NK cell enrichment kit and a CD8^+ T cell enrichment kit, respectively (Cat. 19055 and Cat. 19053, […] Technologies Inc, Cambridge, Mass.). All cells were cultured in 37° C. incubator with 5% CO2. […] Tumors were measured every other day using a caliper, and the tumor volume was calculated as 0.52×length×width^2. […]

[2] = tested on: MOC2-E6/E7 tumors; experiment: Real time PCR of Ifna4 and Ifnb1 in tumor homogenates; assay type: in vivo, C57BL/6 mice; conditions: R9F/Q15L study, tumors harvested 25 days post-implantation
Description: Experimental animals and treatments: Female C57BL6 mice, aged 6-8 weeks, were purchased from the Jackson Laboratory, and maintained in a pathogen-free facility at the University of Michigan. All animal work were done in accordance with and approved by the Institutional Animal Care & Use Committee (IACUC) at the University of Michigan, Ann Arbor. Syngeneic squamous cell carcinoma cells were implanted subcutaneously at the neck. Tumors were measured every other day using a caliper, and the tumor volume was calculated as 0.52×length×width^2. […] To test the efficacy of the vaccine formulations, MOC2-E6/E7 cells were implanted subcutaneously on the back of the neck on day 0. […] Anti-PD-L1 (100 μg/100 μl) (clone B7H1, BioXCell, West Lebanon, N.H.) was administered through intraperitoneal injection on day 1 and 4 after each vaccination.

Row | Molecule | SOX2-induced decrease in STING protein level [1] | production of Ifna4 and Ifnb1 in tumors [2]
1 | CO/C1=C\C(C)=C\[C@@H](C)[C@@H](O)[C@@H](C)C/C(C)=C/C=C/[C@H](OC)[C@@H]([C@@H](C)[C@@H](O)[C@H](C)[C@@]2(O)C[C@@H](O)[C@H](C)[C@@H](C(C)C)O2)OC1=O [bafilomycin A] | partially restored | –
2 | cyclic GMP-AMP [cGAMP] | – | modest effect
3 | CCN(CC)CCCC(C)Nc1ccnc2cc(Cl)ccc12 (stereo not drawn) [chloroquine] | partially restored | –
